Results as given in ChEMBL document CHEMBL1201862, “PubChem BioAssay data set” (2004).
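Results reflect a 48-hour exposure of cells in 96-well plates to compound at five concentrations. GI50 is the concentration that inhibits growth by half.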 Active and inactive are the calls of the source. Rule as the data show it: active = GI50 up to about 1.1 µM and inactive = higher.

Columns and labels:
Experiment in all cases: NCI tumour cell line growth inhibition, 48 h
SNB-75 = system: SNB-75
NCI-H226 = system: NCI-H226
SK-OV-3 = system: SK-OV-3
CAKI-1 = system: CAKI-1
HOP-62 = system: HOP-62
RXF 393 = system: RXF 393
SK-MEL-28 = system: SK-MEL-28
KM12 = system: KM12
CCRF-CEM = system: CCRF-CEM
ACHN = system: ACHN
OVCAR-4 = system: OVCAR-4
NCI/ADR-RES = system: NCI/ADR-RES
SW-620 = system: SW-620
OVCAR-5 = system: OVCAR-5
EKVX = system: EKVX
UO-31 = system: UO-31
U-251 = system: U-251
SR = system: SR
RPMI-8226 = system: RPMI-8226

Measured: GI50

Cc1cc2c(cc1Cl)SC(NNc1cnc3ccccc3n1)=NS2(=O)=O
inactive: SNB-75 72.3 µM | NCI-H226 44.4 µM | SK-OV-3 44.2 µM | CAKI-1 > 100 µM | HOP-62 41.7 µM | RXF 393 40.3 µM | SK-MEL-28 60.5 µM | KM12 74.3 µM | CCRF-CEM 46.8 µM | ACHN > 100 µM | OVCAR-4 56.8 µM | NCI/ADR-RES > 100 µM | SW-620 67.8 µM | OVCAR-5 > 100 µM | EKVX > 100 µM | UO-31 30.4 µM | U-251 48.6 µM

COC(=O)c1ccc(OCCn2nnc(C(=O)NN)c2C(=O)NN)cc1
inactive: SR > 100 µM | CAKI-1 > 100 µM | HOP-62 > 100 µM | SK-MEL-28 > 100 µM | KM12 > 100 µM | RPMI-8226 > 100 µM | CCRF-CEM > 100 µM | ACHN > 100 µM | OVCAR-4 > 100 µM | NCI/ADR-RES > 100 µM | OVCAR-5 > 100 µM | EKVX > 100 µM | UO-31 > 100 µM | U-251 > 100 µM

CC1=CC[C@@]2(CO)[C@@H]([C@@H]1C)[C@H]1CC[C@@H]3[C@@]4(C)CC[C@H](O)C(C)(C)[C@@H]4CC[C@@]3(C)[C@]1(C)C[C@@H]2O
inactive: NCI-H226 27.2 µM | SK-OV-3 14.4 µM | CAKI-1 19.8 µM | HOP-62 14.3 µM | RXF 393 7.08 µM | SK-MEL-28 43.9 µM | KM12 38.5 µM | CCRF-CEM 41.1 µM | ACHN 20.7 µM | OVCAR-4 20.8 µM | NCI/ADR-RES 27.1 µM | SW-620 35.6 µM | OVCAR-5 > 100 µM | EKVX 33.3 µM | UO-31 53.3 µM | U-251 14.4 µM

O=C(O)c1cccc(Nc2c(C(=O)O)cccc2[N+](=O)[O-])c1
inactive: SNB-75 > 100 µM | SK-OV-3 > 100 µM | SR > 100 µM | CAKI-1 > 100 µM | HOP-62 > 100 µM | KM12 57.4 µM | RPMI-8226 > 100 µM | CCRF-CEM > 100 µM | ACHN > 100 µM | OVCAR-4 > 100 µM | NCI/ADR-RES > 100 µM | OVCAR-5 > 100 µM | EKVX > 100 µM | UO-31 > 100 µM

Cc1c2ccccc2c(C2C3C(=O)N(c4ccc(Br)cc4)C(=O)C3ON2C(C(N)=O)c2ccccc2)c2ccccc12 (stereo not drawn)
inactive: SNB-75 5.02 µM | NCI-H226 5.3 µM | SK-OV-3 11.7 µM | CAKI-1 3.67 µM | HOP-62 8.99 µM | RXF 393 11.7 µM | SK-MEL-28 17.9 µM | KM12 4.11 µM | RPMI-8226 1.89 µM | CCRF-CEM 3.18 µM | ACHN 4.12 µM | OVCAR-4 4.94 µM | NCI/ADR-RES 4.39 µM | SW-620 3.98 µM | OVCAR-5 5.6 µM | EKVX 5.28 µM | UO-31 10 µM | U-251 2.69 µM

CCOC(=O)/C(C#N)=N\Nc1ccc(-n2c(C)nc3ccc(Br)cc3c2=O)cc1
inactive: SNB-75 55.1 µM | NCI-H226 79.8 µM | SK-OV-3 > 100 µM | SR 19.7 µM | CAKI-1 > 100 µM | HOP-62 91.6 µM | SK-MEL-28 98.2 µM | KM12 40.3 µM | RPMI-8226 30.3 µM | CCRF-CEM 33.2 µM | ACHN > 100 µM | NCI/ADR-RES 62.4 µM | SW-620 90.6 µM | OVCAR-5 > 100 µM | EKVX 87.1 µM | UO-31 30.5 µM | U-251 91.2 µM

C[n+]1cccc2ccc(OC(=O)c3ccccc3)cc21
inactive: SNB-75 > 100 µM | NCI-H226 > 100 µM | SK-OV-3 > 100 µM | CAKI-1 > 100 µM | HOP-62 > 100 µM | RXF 393 > 100 µM | KM12 > 100 µM | RPMI-8226 > 100 µM | CCRF-CEM > 10 µM | ACHN > 100 µM | OVCAR-4 > 100 µM | NCI/ADR-RES > 100 µM | SW-620 > 100 µM | OVCAR-5 > 100 µM | EKVX > 100 µM | UO-31 > 100 µM

COc1ccc(C2OC(c3ccncc3)=NN2C)cc1OC (stereo not drawn)
inactive: NCI-H226 81.7 µM | SK-OV-3 > 100 µM | CAKI-1 73.3 µM | HOP-62 94.6 µM | RXF 393 93.5 µM | SK-MEL-28 > 100 µM | KM12 > 100 µM | RPMI-8226 > 100 µM | CCRF-CEM > 100 µM | ACHN > 100 µM | OVCAR-4 > 100 µM | NCI/ADR-RES > 100 µM | SW-620 > 100 µM | OVCAR-5 > 100 µM | EKVX > 100 µM | UO-31 60.1 µM | U-251 > 100 µM

c1ccc(-c2cnc(-c3ccc(-c4ncc(-c5ccccc5)o4)cc3)o2)cc1
inactive: SNB-75 56.5 µM | NCI-H226 > 100 µM | SK-OV-3 > 100 µM | HOP-62 > 100 µM | RXF 393 > 100 µM | SK-MEL-28 > 100 µM | KM12 > 100 µM | RPMI-8226 > 100 µM | CCRF-CEM > 100 µM | ACHN > 100 µM | OVCAR-4 > 100 µM | NCI/ADR-RES > 100 µM | SW-620 > 100 µM | OVCAR-5 > 100 µM | EKVX > 100 µM | UO-31 > 100 µM | U-251 > 100 µM

Cc1ccc2c(=O)c(C(=O)N(CCO)CCO)c[nH]c2n1
inactive: NCI-H226 > 100 µM | CAKI-1 > 100 µM | HOP-62 > 100 µM | RXF 393 > 100 µM | SK-MEL-28 > 100 µM | KM12 > 100 µM | RPMI-8226 > 100 µM | CCRF-CEM > 100 µM | ACHN > 100 µM | OVCAR-4 > 100 µM | NCI/ADR-RES > 100 µM | SW-620 > 100 µM | OVCAR-5 > 100 µM | EKVX > 100 µM | UO-31 > 100 µM | U-251 > 100 µM

CC1(C)OC[C@@H]([C@H](C=O)OCc2ccccc2)O1
inactive: SNB-75 > 100 µM | NCI-H226 > 100 µM | SK-OV-3 > 100 µM | SR > 100 µM | HOP-62 > 100 µM | SK-MEL-28 > 100 µM | KM12 > 100 µM | RPMI-8226 > 100 µM | CCRF-CEM > 100 µM | ACHN > 100 µM | OVCAR-4 > 100 µM | NCI/ADR-RES > 100 µM | SW-620 > 100 µM | OVCAR-5 > 100 µM | EKVX > 100 µM | UO-31 > 100 µM | U-251 > 100 µM

CCOP(=O)(O)CC1OC(CO)C(O)C1O (stereo not drawn)
inactive: SNB-75 > 100 µM | NCI-H226 > 100 µM | SK-OV-3 > 100 µM | HOP-62 > 100 µM | RXF 393 > 100 µM | SK-MEL-28 > 100 µM | CCRF-CEM > 100 µM | ACHN > 100 µM | NCI/ADR-RES > 100 µM | SW-620 > 100 µM | OVCAR-5 > 100 µM | EKVX > 100 µM | UO-31 > 100 µM | U-251 > 100 µM
